Patent US12460317B2 (The Texas A&M University System, priority 2019, dated 2025)
Starred links: 1 amine or outer side, 2 acyl side, 3 side chain; linkers in the order of their positions; H or OH if unused. Positions of bridges follow the written chain, without caps; N, C: chain ends. Residues, ends and D or L forms follow the SMILES beside them. *: point of attachment. 5FAM = O=C1OC2(c3ccc(O)cc3Oc3cc(O)ccc32)c2ccc(C(=O)*)cc21; CH2CH2CO = O=C(CC[*:1])[*:2]

What was measured:
HDAC8 = HDAC8 (Homo sapiens, UniProt Q9BY41); assay: biochemical
Description: Applicants incubated a 25 nM 5-FAM-conjugated cyclic peptide and different concentrations of a target protein (160 nM to 160 μM) in black 96-well plates in a 200 μL total volume that was adjusted by adding a PBS buffer. The fluorescence polarization was measured in a microplate reader at Ex/Em=490 nm/520 nm.

[1] = physiological conditions; cited from earlier work

Sequence of HDAC8 (Q9BY41 whole entry): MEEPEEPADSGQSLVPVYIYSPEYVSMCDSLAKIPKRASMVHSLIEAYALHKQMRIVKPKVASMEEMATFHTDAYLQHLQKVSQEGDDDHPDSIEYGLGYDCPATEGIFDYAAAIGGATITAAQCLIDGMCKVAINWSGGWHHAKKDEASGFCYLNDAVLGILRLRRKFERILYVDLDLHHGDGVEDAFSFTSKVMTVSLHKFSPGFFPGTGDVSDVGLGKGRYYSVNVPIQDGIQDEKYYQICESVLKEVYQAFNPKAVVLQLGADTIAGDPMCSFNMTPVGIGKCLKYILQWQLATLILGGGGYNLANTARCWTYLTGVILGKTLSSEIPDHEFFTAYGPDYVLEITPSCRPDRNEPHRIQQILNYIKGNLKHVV

SMILES | Kd (HDAC8) | second-order rate constant of reaction with a thiol [1]
CSCC[C@@H]1NC(=O)[C@H](Cc2c[nH]c3ccccc23)NC(=O)[C@H](CC(C)C)NC(=O)[C@H](CO)NC(=O)[C@H](CCC(N)=O)NC(=O)[C@@H](N)CSCCC(=O)NCCCC[C@@H](C(=O)N[C@@H](CCCCNC(=O)c2ccc3c(c2)C(=O)OC32c3ccc(O)cc3Oc3cc(O)ccc32)C(N)=O)NC(=O)[C@H](CC(N)=O)NC1=O [CycH8a, CQSLWMNX] (H-CQSLWMNKK(5FAM)-NH2; linker 1-8 via CH2CH2CO) | 7.1 µM | 
C=CC(=O)NCCCC[C@H](N)C(=O)O [AcrK, N^ε-acryloyl-lysine] |  | 0.004 M⁻¹ s⁻¹
